According to patent US8513229B2, “4-Azetidinyl-1-phenyl-cyclohexane antagonists of CCR2” (Janssen Pharmaceutica NV, priority 2009, dated 2013):

molecular target: T1, CCR2 (Homo sapiens, UniProt P41597); test: MCP-1 Receptor Binding Assay in THP-1 Cells; details: 0.5 nM 125I labeled MCP-1, 2 hours at 30° C., read-out: Inhibition of MCP-1 Binding IC50 CCR2 Binding
T1 construct: host or cells: THP-1 human monocytic cells
T1 sequence (P41597 1-360 isoform P41597-2): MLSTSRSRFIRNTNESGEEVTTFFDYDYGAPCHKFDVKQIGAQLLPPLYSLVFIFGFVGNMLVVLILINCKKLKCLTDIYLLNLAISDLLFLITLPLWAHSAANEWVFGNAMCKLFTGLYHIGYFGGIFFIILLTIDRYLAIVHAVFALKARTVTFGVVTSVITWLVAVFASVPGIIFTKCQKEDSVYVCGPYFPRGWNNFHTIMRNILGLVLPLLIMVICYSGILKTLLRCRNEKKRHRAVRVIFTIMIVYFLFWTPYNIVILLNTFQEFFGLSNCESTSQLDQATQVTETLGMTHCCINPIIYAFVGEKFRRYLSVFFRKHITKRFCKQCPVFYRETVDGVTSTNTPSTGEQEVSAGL
Method: MCP-1 Receptor Binding Assay in THP-1 Cells
Human monocytic cell line THP-1 cells were obtained from American Type Culture Collection (Manassas, Va., USA). […] The cell density was maintained […].
1 μM cold MCP-1 was used for nonspecific binding.

SMILES | IC50 [nM]
O=C(CNC(=O)c1cccc(C(F)(F)F)c1)NC1CN(C2CCC(c3cccc(C(=O)O)c3)CC2)C1 (stereo not shown) [Example 12, 3-(4-{3-[2-(3-Trifluoromethyl-benzoylamino)-acetylamino]-azetidin-1-yl}-cyclohexyl)-benzoic acid] | 220
O=C(CNC(=O)c1cccc(C(F)(F)F)c1)NC1CN(C2CCC(c3ccc(N4CCCC4)cc3)CC2)C1 (stereo not shown) [Example 13, N-({1-[4-(4-Pyrrolidin-1-yl-phenyl)-cyclohexyl]-azetidin-3-ylcarbamoyl}-methyl)-3-trifluoromethyl-benzamide] | 61
Nc1ccc(C2CCC(N3CC(NC(=O)CNC(=O)c4cccc(C(F)(F)F)c4)C3)CC2)cc1 (stereo not shown) [Example 15, N-({1-[4-(4-Amino-phenyl)-cyclohexyl]-azetidin-3-ylcarbamoyl}-methyl)-3-trifluoromethyl-benzamide] | 337
CS(=O)(=O)Nc1ccc(C2CCC(N3CC(NC(=O)CNC(=O)c4cccc(C(F)(F)F)c4)C3)CC2)cc1 (stereo not shown) [Example 16, N-({1-[4-(4-Methanesulfonylamino-phenyl)-cyclohexyl]-azetidin-3-ylcarbamoyl}-methyl)-3-trifluoromethyl-benzamide] | 100
CC(C)(C)NC(=O)Nc1ccc(C2CCC(N3CC(NC(=O)CNC(=O)c4cccc(C(F)(F)F)c4)C3)CC2)cc1 (stereo not shown) [Example 18, N-[(1-{4-[4-(3-tert-Butyl-ureido)-phenyl]-cyclohexyl}-azetidin-3-ylcarbamoyl)-methyl]-3-trifluoromethyl-benzamide] | > 25000
NC(=O)Nc1ccc(C2CCC(N3CC(NC(=O)CNC(=O)c4cccc(C(F)(F)F)c4)C3)CC2)cc1 (stereo not shown) [Example 19, 3-Trifluoromethyl-N-({1-[4-(4-ureido-phenyl)-cyclohexyl]-azetidin-3-ylcarbamoyl}-methyl)-benzamide] | 130
N=C(N)Cc1ccc(C2CCC(N3CC(NC(=O)CNC(=O)c4cccc(C(F)(F)F)c4)C3)CC2)cc1 (stereo not shown) [Example 22, N-({1-[4-(4-Carbamimidoylmethyl-phenyl)-cyclohexyl]-azetidin-3-ylcarbamoyl}-methyl)-3-trifluoromethyl-benzamide] | 8600
O=C(CNC(=O)c1cccc(C(F)(F)F)c1)NC1CN(C2CCC(c3ccc(Cc4nn[nH]n4)cc3)CC2)C1 (stereo not shown) [Example 23, N-[(1-{4-[4-(2H-Tetrazol-5-ylmethyl)-phenyl]-cyclohexyl}-azetidin-3-ylcarbamoyl)-methyl]-3-trifluoromethyl-benzamide] | 260
O=C(O)Cc1ccc(C2CCC(N3CC(NC(=O)CNC(=O)c4cccc(C(F)(F)F)c4)C3)CC2)cc1 (stereo not shown) [Example 25, [4-(4-{3-[2-(3-Trifluoromethyl-benzoylamino)-acetylamino]-azetidin-1-yl}-cyclohexyl)-phenyl]-acetic acid] | 320
NC(=O)Cc1ccc(C2CCC(N3CC(NC(=O)CNC(=O)c4cccc(C(F)(F)F)c4)C3)CC2)cc1 (stereo not shown) [Example 26, N-({1-[4-(4-Carbamoylmethyl-phenyl)-cyclohexyl]-azetidin-3-ylcarbamoyl}-methyl)-3-trifluoromethyl-benzamide] | 70
N#Cc1ccc(C2CCC(N3CC(NC(=O)CNC(=O)c4cccc(C(F)(F)F)c4)C3)CC2)cc1 (stereo not shown) [Example 27, N-({1-[4-(4-Cyano-phenyl)-cyclohexyl]-azetidin-3-ylcarbamoyl}-methyl)-3-trifluoromethyl-benzamide] | 86
O=C(CNC(=O)c1cccc(C(F)(F)F)c1)NC1CN(C2CCC(c3ccc(-c4nn[nH]n4)cc3)CC2)C1 (stereo not shown) [Example 28, N-[(1-{4-[4-(2H-Tetrazol-5-yl)-phenyl]-cyclohexyl}-azetidin-3-ylcarbamoyl)-methyl]-3-trifluoromethyl-benzamide] | 200
CS(=O)(=O)c1ccc(C2CCC(N3CC(NC(=O)CNC(=O)c4cccc(C(F)(F)F)c4)C3)CC2)cc1 (stereo not shown) [Example 29, N-({1-[4-(4-Methanesulfonyl-phenyl)-cyclohexyl]-azetidin-3-ylcarbamoyl}-methyl)-3-trifluoromethyl-benzamide] | 280
CN(C)CCOc1ccc(C2CCC(N3CC(NC(=O)CNC(=O)c4cccc(C(F)(F)F)c4)C3)CC2)cc1 (stereo not shown) [Example 41, N-[(1-{4-[4-(2-Dimethylamino-ethoxy)-phenyl]-cyclohexyl}-azetidin-3-ylcarbamoyl)-methyl]-3-trifluoromethyl-benzamide] | 160
O=C(CNC(=O)c1cccc(C(F)(F)F)c1)NC1CN(C2CCC(O)(c3ccc(O)cc3)CC2)C1 (stereo not shown) [Example 42, N-({1-[4-Hydroxy-4-(4-hydroxy-phenyl)-cyclohexyl]-azetidin-3-ylcarbamoyl}-methyl)-3-trifluoromethyl-benzamide] | 130
COC(=O)COc1ccc(C2CCC(N3CC(NC(=O)CNC(=O)c4cccc(C(F)(F)F)c4)C3)CC2)cc1 (stereo not shown) [Example 43] | 38

SMILES | IC50 [nM]
O=C(O)COc1ccc(C2CCC(N3CC(NC(=O)CNC(=O)c4cccc(C(F)(F)F)c4)C3)CC2)cc1 (stereo not shown) [Example 44] | 124
O=C(CNC(=O)c1cccc(C(F)(F)F)c1)NC1CN(C2CCC(O)(c3ccc(C(=O)O)cc3)CC2)C1 (stereo not shown) [Example 45, 4-(1-Hydroxy-4-{3-[2-(3-trifluoromethyl-benzoylamino)-acetylamino]-azetidin-1-yl}-cyclohexyl)-benzoic acid] | 6900
O=C(CNC(=O)c1cccc(C(F)(F)F)c1)NC1CN(C2CCC(O)(c3cccc(-c4nnn[nH]4)c3)CC2)C1 (stereo not shown) [Example 49, N-[(1-{4-Hydroxy-4-[3-(1H-tetrazol-5-yl)-phenyl]-cyclohexyl}-azetidin-3-ylcarbamoyl)-methyl]-3-trifluoromethyl-benzamide] | 810
CC(C)(C)OC(=O)Nc1ccc(C2(O)CCC(N3CC(NC(=O)CNC(=O)c4cccc(C(F)(F)F)c4)C3)CC2)cc1 (stereo not shown) [Example 50, [4-(1-Hydroxy-4-{3-[2-(3-trifluoromethyl-benzoylamino)-acetylamino]-azetidin-1-yl}-cyclohexyl)-phenyl]-carbamic acid tert-butyl ester] | 230
CCc1cccc(C2(O)CCC(N3CC(NC(=O)CNC(=O)c4cccc(C(F)(F)F)c4)C3)CC2)c1 (stereo not shown) [Example 52, N-({1-[4-(3-Ethyl-phenyl)-4-hydroxy-cyclohexyl]-azetidin-3-ylcarbamoyl}-methyl)-3-trifluoromethyl-benzamide] | 160
O=C(CNC(=O)c1cccc(C(F)(F)F)c1)NC1CN(C2CCC(O)(c3ccc(Cl)cc3)CC2)C1 (stereo not shown) [Example 53, N-({1-[4-(4-Chloro-phenyl)-4-hydroxy-cyclohexyl]-azetidin-3-ylcarbamoyl}-methyl)-3-trifluoromethyl-benzamide] | 240
Cc1ccc(C2(O)CCC(N3CC(NC(=O)CNC(=O)c4cccc(C(F)(F)F)c4)C3)CC2)cc1 (stereo not shown) [Example 59, N-{[1-(4-Hydroxy-4-p-tolyl-cyclohexyl)-azetidin-3-ylcarbamoyl]-methyl}-3-trifluoromethyl-benzamide] | 100
Cc1cccc(C2(O)CCC(N3CC(NC(=O)CNC(=O)c4cccc(C(F)(F)F)c4)C3)CC2)c1 (stereo not shown) [Example 60, N-{[1-(4-Hydroxy-4-m-tolyl-cyclohexyl)-azetidin-3-ylcarbamoyl]-methyl}-3-trifluoromethyl-benzamide] | 100
CS(=O)(=O)Nc1cccc(C2(O)CCC(N3CC(NC(=O)CNC(=O)c4cccc(C(F)(F)F)c4)C3)CC2)c1 (stereo not shown) [Example 61, N-({1-[4-Hydroxy-4-(3-methanesulfonylamino-phenyl)-cyclohexyl]-azetidin-3-ylcarbamoyl}-methyl)-3-trifluoromethyl-benzamide] | 130
Cn1c(=O)n(C)c2cc(C3(O)CCC(N4CC(NC(=O)CNC(=O)c5cccc(C(F)(F)F)c5)C4)CC3)ccc21 (stereo not shown) [Example 62, N-({1-[4-(1,3-Dimethyl-2-oxo-2,3-dihydro-1H-benzoimidazol-5-yl)-4-hydroxy-cyclohexyl]-azetidin-3-ylcarbamoyl}-methyl)-3-trifluoromethyl-benzamide] | 82
Cn1c(=O)oc2ccc(C3(O)CCC(N4CC(NC(=O)CNC(=O)c5cccc(C(F)(F)F)c5)C4)CC3)cc21 (stereo not shown) [Example 63a, N-({1-[4-Hydroxy-4-(3-methyl-2-oxo-2,3-dihydro-benzooxazol-5-yl)-cyclohexyl]-azetidin-3-ylcarbamoyl}-methyl)-3-trifluoromethyl-benzamide] | 150
Cn1cnc2ccc(C3(O)CCC(N4CC(NC(=O)CNC(=O)c5cccc(C(F)(F)F)c5)C4)CC3)cc21 (stereo not shown) [Example 64, N-({1-[4-Hydroxy-4-(3-methyl-3H-benzoimidazol-5-yl)-cyclohexyl]-azetidin-3-ylcarbamoyl}-methyl)-3-trifluoromethyl-benzamide] | 110
O=C(CNC(=O)c1cc(C(F)(F)F)ccc1F)NC1CN(C2CCC(c3ccccc3)CC2)C1 (stereo not shown) [Example 66, 2-Fluoro-N-{[1-(4-phenyl-cyclohexyl)-azetidin-3-ylcarbamoyl]-methyl}-5-trifluoromethyl-benzamide] | 620
COc1ccc(C(=O)NCC(=O)NC2CN(C3CCC(c4ccccc4)CC3)C2)cc1C(F)(F)F (stereo not shown) [Example 67, 4-Methoxy-N-{[1-(4-phenyl-cyclohexyl)-azetidin-3-ylcarbamoyl]-methyl}-3-trifluoromethyl-benzamide] | 600
COc1ccc(C(F)(F)F)cc1C(=O)NCC(=O)NC1CN(C2CCC(c3ccccc3)CC2)C1 (stereo not shown) [Example 68, 2-Methoxy-N-{[1-(4-phenyl-cyclohexyl)-azetidin-3-ylcarbamoyl]-methyl}-5-trifluoromethyl-benzamide] | 740
